Experimental data: BigSolDB 2.1

CN[C@@H]1[C@H](O)[C@H](NC)[C@H]2O[C@@]3(O)C(=O)C[C@@H](C)O[C@H]3O[C@@H]2[C@H]1O.Cl.Cl.O.O.O.O.O
solubility (mole fraction)
Details	278.15 K	283.15 K	288.15 K	293.15 K	298.15 K	303.15 K	308.15 K	313.15 K	318.15 K
in ethanol	0.00342	0.00412	0.00443	0.00484	0.00545	0.00629	0.00664	0.00738	0.00807
in isopropanol	0.00031	0.0004	0.00051	0.00066	0.00074	0.00086	0.00101	0.00114	0.00131
in methanol	0.00988	0.0138	0.0185	0.0226	0.032	0.0385	0.0439	0.0531	0.0629
in n-propanol	0.00098	0.00125	0.00157	0.00219	0.0027	0.00336	0.00373	0.00447	0.00531
